Biological target: T1, human LPAR1 (Homo sapiens, UniProt Q92633)
T1 construct: expressed in transfected cells
Assay: Test Example 1: antagonism against response of LPA-induced increase in intracellular Ca2+ concentration in RH7777 cells stably expressing human LPAR1
Format: cell-based
Settings: RH7777 cells stably expressing human LPAR1; Fluo-4 fluorescence, FDSS6000; read-out: IC50 value (concentration producing 50% antagonism against response of LPA-induced increase in intracellular Ca2+ concentration) (converted)
Procedure, shortened: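 RH7777 cells stably transfected with human LPAR1 were preincubated with test compound 30 min at 37 °C in HBSS/20 mM HEPES/probenecid/0.05% BSA buffer, pH 7.4, then LPA-stimulated.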

T1 sequence (Q92633 whole entry): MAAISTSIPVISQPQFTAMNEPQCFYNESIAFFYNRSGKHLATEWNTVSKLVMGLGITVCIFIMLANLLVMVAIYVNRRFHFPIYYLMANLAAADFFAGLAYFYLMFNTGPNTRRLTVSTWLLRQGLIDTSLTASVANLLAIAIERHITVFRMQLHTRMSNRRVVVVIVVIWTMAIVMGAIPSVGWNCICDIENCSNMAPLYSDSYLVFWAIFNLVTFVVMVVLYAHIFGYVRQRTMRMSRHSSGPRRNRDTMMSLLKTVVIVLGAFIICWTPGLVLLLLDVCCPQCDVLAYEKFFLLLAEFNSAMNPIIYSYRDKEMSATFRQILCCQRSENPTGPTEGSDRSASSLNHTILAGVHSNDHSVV

| SMILES | IC50 |
| --- | --- |
| CCOc1cc([C@@H](C)N(CCCCc2ccccc2)C(=O)NC2CCC(C(=O)O)C2)cc(OCC)c1C (stereo partly drawn) [Example 1-142] | 49.2 nM |
| CCOc1cc(C(C)N(CCCCc2ccccc2)C(=O)NC2CCC(C(=O)O)CC2)cc(OCC)c1C (stereo not drawn) [Example 1-143] | 200 nM |
| CCOc1cc([C@@H](C)N(CCCCc2ccccc2)C(=O)NCC2(C(=O)O)CC2)cc(OCC)c1C(C)=O [Example 1-144] | 28.7 nM |
| CCOc1cc([C@@H](C)N(CCCCc2ccccc2)C(=O)NC2(CC(=O)O)CC2)cc(OCC)c1C(C)=O [Example 1-145] | 1.72 nM |
| CCOc1cc(C(C)N(CCCCc2ccccc2)C(=O)NC2(CC(=O)O)CCCC2)cc(OCC)c1C (stereo not drawn) [Example 1-146] | 24.3 nM |
| CCOc1cc(C(C)N(CCCCc2ccccc2)C(=O)NC2(CC(=O)O)Cc3ccccc3C2)cc(OCC)c1C (stereo not drawn) [Example 1-147] | 40.6 nM |
| CCOc1cc(C(C)N(CCCCc2ccccc2)C(=O)NC2CC(CC(=O)O)C2)cc(OCC)c1C (stereo not drawn) [Example 1-148] | 25.5 nM |
| CCOc1cc([C@@H](C)N(CCCCc2ccccc2)C(=O)NC2(C(=O)O)COC2)cc(OCC)c1C(C)=O [Example 1-149, 3-({[(1R)-1-(4-Acetyl-3,5-Diethoxyphenyl)Ethyl](4-Phenylbutyl) Carbamoyl}Amino) Oxetane-3-Carboxylic Acid] | 2.24 nM |
| CCOc1cc([C@@H](C)N(CCCCc2ccccc2)C(=O)NC2(C(=O)O)CCOC2)cc(OCC)c1C (stereo partly drawn) [Example 1-150] | 8 nM |
| CCOc1cc([C@@H](C)N(CCCCc2ccccc2)C(=O)NC2(C(=O)O)CCOCC2)cc(OCC)c1C(C)=O [Example 1-151] | 3.57 nM |
| CCOc1cc([C@@H](C)N(CCCCc2ccccc2)C(=O)NC2(C(=O)O)CCOCC2)cc(OCC)c1C(C)O (stereo partly drawn) [Example 1-152, 4-{[{(1R)-1-[3,5-Diethoxy-4-(1-Hydroxyethyl)Phenyl]Ethyl}(4-Phenylbutyl) Carbamoyl]Amino}Oxane-4-Carboxylic Acid] | 5.17 nM |
| CCOc1cc([C@@H](C)N(CCCCc2ccccc2)C(=O)NC2(C(=O)O)CCOCC2)cc(OCC)c1C1(O)CC1 [Example 1-153] | 173 nM |
| CCOc1cc([C@@H](C)N(CCCCc2ccccc2)C(=O)NC2(C(=O)O)CCOCC2)cc(OCC)c1C [Example 1-154] | 11.3 nM |
| CCOc1cc([C@@H](C)N(CCCCc2ccccc2)C(=O)NC2(C(=O)O)CCOCC2)cc(OCC)c1C1CC1 [Example 1-155] | 0.997 nM |
| CCOc1c(C(C)=O)ccc([C@@H](C)N(CCCCc2ccccc2)C(=O)NC2(C(=O)O)CCOCC2)c1C [Example 1-156] | 3.68 nM |
| CCOc1cc([C@@H](C)N(CCCCc2ccccc2)C(=O)NC2(C(=O)O)CCS(=O)(=O)CC2)cc(OCC)c1C [Example 1-157] | 3.24 nM |
| CCOc1cc([C@@H](C)N(CCCCc2ccccc2)C(=O)NC2(C(=O)O)CNC2)cc(OCC)c1C [Example 1-158, 3-({[(1R)-1-(3,5-Diethoxy-4-Methylphenyl)Ethyl](4-Phenylbutyl) Carbamoyl}Amino) Azetidine-3-Carboxylic Acid] | 294 nM |
| CCOc1cc([C@@H](C)N(CCCCc2ccccc2)C(=O)NC2(C(=O)O)CN(C(C)=O)C2)cc(OCC)c1C [Example 1-159, 1-Acetyl-3-({[(1R)-1-(3,5-Diethoxy-4-Methylphenyl)Ethyl](4-Phenylbutyl) Carbamoyl}Amino) Azetidine-3-Carboxylic Acid] | 2.56 nM |
| CCOc1cc([C@@H](C)N(CCCCc2ccccc2)C(=O)NC2(C(=O)O)CCN(C(C)=O)CC2)cc(OCC)c1C [Example 1-160] | 11.9 nM |
| CCOc1cc([C@@H](C)N(CCCCc2ccccc2)C(=O)N[C@H]2COC[C@H]2C(=O)O)cc(OCC)c1C(C)=O [Example 1-161] | 9.64 nM |
| CCOc1cc([C@@H](C)N(CCCCc2ccccc2)C(=O)N[C@H]2COC[C@H]2C(=O)O)cc(OCC)c1C(C)=O [Example 1-162] | 3.92 nM |
| CCOc1cc([C@@H](C)N(CCCCc2ccccc2)C(=O)NC2CC(C(=O)O)N(C(C)=O)C2)cc(OCC)c1C(C)=O (stereo partly drawn) [Example 1-163] | 20.5 nM |
| CCOc1cc([C@@H](C)N(CCCCc2ccccc2)C(=O)NC2CC(C(=O)O)N(C(C)=O)C2)cc(OCC)c1C(C)=O (stereo partly drawn) [Example 1-164] | 38.4 nM |
| CCOc1cc([C@@H](C)N(CCCCc2ccccc2)C(=O)NCC2(C(=O)O)CCOCC2)cc(OCC)c1C(C)=O [Example 1-165] | 64.8 nM |
| CCOc1cc([C@@H](C)N(CCCCc2ccccc2)C(=O)NC2(CC(=O)O)CCOCC2)cc(OCC)c1C(C)=O [Example 1-166] | 11 nM |
| CCOc1cc([C@@H](C)N(CCCCc2ccccc2)C(=O)N(C)C2(C(=O)O)CC(F)(F)C2)cc(OCC)c1C [Example 2-1, 1-[{[(1R)-1-(3,5-Diethoxy-4-Methylphenyl)Ethyl](4-Phenylbutyl) Carbamoyl}(Methyl)Amino]-3,3-Difluorocyclobutane-1-Carboxylic Acid] | 608 nM |
| CCOc1cc(CN(CCCCc2ccccc2)C(=O)NC2(C(=O)O)CCCC2)cc(OCC)c1C [Example 3-2] | 85.8 nM |

| SMILES | IC50 |
| --- | --- |
| CCC(c1cc(OC)c(C)c(OC)c1)N(CCCCc1ccccc1)C(=O)NC1(C(=O)O)CC(F)(F)C1 (stereo not drawn) [Example 3-3] | 30.1 nM |
| CCOc1cc(C(CO)N(CCCCc2ccccc2)C(=O)NC2(C(=O)O)CC(F)(F)C2)cc(OCC)c1C(C)=O (stereo not drawn) [Example 3-4, 1-({[1-(4-Acetyl-3,5-Diethoxyphenyl)-2-Hydroxyethyl](4-Phenylbutyl) Carbamoyl}Amino)-3,3-Difluorocyclobutane-1-Carboxylic Acid] | 4.03 nM |
| CCOc1cc(C(CO)N(CCCCc2ccccc2)C(=O)NC2(C(=O)O)CC(F)(F)C2)cc(OCC)c1C (stereo not drawn) [Example 3-5] | 4.88 nM |
| COc1cc(C(CO)N(CCCCc2ccccc2)C(=O)NC2(C(=O)O)CC(F)(F)C2)cc(OC)c1C (stereo not drawn) [Example 3-6] | 7.07 nM |
| COc1cc(C(CO)N(CCCCc2ccccc2)C(=O)NC2(C(=O)O)CCCC2)cc(OC)c1C (stereo not drawn) [Example 3-7] | 74.5 nM |
| CCOc1cc(C(CO)N(CCCCc2ccccc2)C(=O)NC2(C(=O)O)Cc3ccccc3C2)cc(OCC)c1C (stereo not drawn) [Example 3-8] | 33.5 nM |
| COc1cc(C(CO)N(CCCCc2ccccc2)C(=O)NC2(C(=O)O)Cc3ccccc3C2)cc(OC)c1C (stereo not drawn) [Example 3-9] | 62.7 nM |
| CCOc1cc(C(COC)N(CCCCc2ccccc2)C(=O)NC2(C(=O)O)CC(F)(F)C2)cc(OCC)c1C (stereo not drawn) [Example 3-10] | 114 nM |
| CCCCN(C(=O)NC1(C(=O)O)CC(F)(F)C1)[C@H](C)c1cc(OCC)c(C)c(OCC)c1 [Example 4-1, 1-({Butyl[(1R)-1-(3,5-Diethoxy-4-Methylphenyl)Ethyl]Carbamoyl}Amino)-3,3-Difluorocyclobutane-1-Carboxylic Acid] | 2500 nM |
| CCOc1cc([C@@H](C)N(CCCCC(C)C)C(=O)NC2(C(=O)O)CC(F)(F)C2)cc(OCC)c1C [Example 4-2] | 8.34 nM |
| CCOc1cc([C@@H](C)N(CCCc2ccccc2F)C(=O)NC2(C(=O)O)CC(F)(F)C2)cc(OCC)c1C [Example 4-4, 1-({[(1R)-1-(3,5-Diethoxy-4-Methylphenyl)Ethyl][3-(2-Fluorophenyl) Propyl]Carbamoyl}Amino)-3,3-Difluorocyclobutane-1-Carboxylic Acid] | 9.64 nM |
| CCOc1cc([C@@H](C)N(CCCc2ccc(F)cc2)C(=O)NC2(C(=O)O)CC(F)(F)C2)cc(OCC)c1C [Example 4-5] | 6.91 nM |
| CCOc1cc(C(C)N(CCCc2cccc(F)c2)C(=O)NC2(C(=O)O)CC(F)(F)C2)cc(OCC)c1C (stereo not drawn) [Example 4-7] | 25.2 nM |
| CCOc1cc(C(C)N(CCCCc2ccccc2F)C(=O)NC2(C(=O)O)CC(F)(F)C2)cc(OCC)c1C (stereo not drawn) [Example 4-8] | 8.87 nM |
| CCOc1cc(C(C)N(CCCCc2ccc(F)cc2)C(=O)NC2(C(=O)O)CC(F)(F)C2)cc(OCC)c1C (stereo not drawn) [Example 4-9] | 11.6 nM |
| CCOc1cc(C(C)N(CCCCc2cc(F)cc(F)c2)C(=O)NC2(C(=O)O)CC(F)(F)C2)cc(OCC)c1C (stereo not drawn) [Example 4-10] | 26.4 nM |
| CCOc1cc([C@@H](C)N(CCc2ccc(Cl)cc2)C(=O)NC2(C(=O)O)CC(F)(F)C2)cc(OCC)c1C [Example 4-11] | 126 nM |
| CCOc1cc(C(C)N(CCCc2cccc(C)c2)C(=O)NC2(C(=O)O)CC(F)(F)C2)cc(OCC)c1C (stereo not drawn) [Example 4-13] | 59.8 nM |
| CCOc1cc([C@@H](C)N(CCCCc2ccccc2C)C(=O)NC2(C(=O)O)CC(F)(F)C2)cc(OCC)c1C [Example 4-15] | 32.7 nM |
| CCOc1cc([C@@H](C)N(CCCCc2cccc(C)c2)C(=O)NC2(C(=O)O)CC(F)(F)C2)cc(OCC)c1C [Example 4-16] | 4.05 nM |
| CCOc1cc([C@@H](C)N(CCCCc2ccc(C)cc2)C(=O)NC2(C(=O)O)CC(F)(F)C2)cc(OCC)c1C [Example 4-17] | 9.68 nM |
| CCOc1cc([C@@H](C)N(CCCCc2cccc(OC)c2)C(=O)NC2(C(=O)O)CC(F)(F)C2)cc(OCC)c1C [Example 4-18, 1-({[(1R)-1-(3,5-Diethoxy-4-Methylphenyl)Ethyl][4-(3-Methoxyphenyl)Butyl]Carbamoyl}Amino)-3,3-Difluorocyclobutane-1-Carboxylic Acid] | 18.1 nM |
| CCOc1cc([C@@H](C)N(CCCCc2ccc(OC)cc2)C(=O)NC2(C(=O)O)CC(F)(F)C2)cc(OCC)c1C [Example 4-19] | 60.8 nM |
| CCOc1cc([C@@H](C)N(CCc2ccc(OC)cc2)C(=O)NC2(C(=O)O)CC(F)(F)C2)cc(OCC)c1C [Example 4-20] | 148 nM |
| CCOc1cc([C@@H](C)N(CCC2Cc3ccccc3C2)C(=O)NC2(C(=O)O)CC(F)(F)C2)cc(OCC)c1C [Example 4-21, 1-({[(1R)-1-(3,5-Diethoxy-4-Methylphenyl)Ethyl][2-(2,3-Dihydro-1H-Inden-2-Yl)Ethyl]Carbamoyl}Amino)-3,3-Difluorocyclobutane-1-Carboxylic Acid] | 2.74 nM |
| CCOc1cc([C@@H](C)N(CCC2Cc3ccccc3C2)C(=O)NC2(C(=O)O)CC(OC)C2)cc(OCC)c1C(C)=O (stereo partly drawn) [Example 4-22] | 7.62 nM |
| CCOc1cc([C@@H](C)N(CCC2Cc3ccccc3C2)C(=O)NC2(C(=O)O)CC(OC)C2)cc(OCC)c1C(C)=O (stereo partly drawn) [Example 4-23] | 7.17 nM |

Reference: patent US12338203B2 (TAISHO PHARMACEUTICAL CO., LTD., priority 2019, dated 2025)
